Data published in patent US4423053A, “Derivatives of 2-amino-5-(o-sulphamidophenyl)-1,3,4-thiadiazol as antiviral agents and a process for the preparation thereof” (Societa Italo-Britannica L. Manetti-H. Roberts & Co., priority 1981, dated 1983).
Where two headings read alike, the source gives them in different places.

Legend:
Polio 1 = format: cell-based
HSV2 [1] = assay: Activity on kidney primary cells of rabbit with respect to HSV2 (Table I)
[2] = tested on: Herpes simplex virus type 2; assay: Activity in vitro on HSV2 for different times of administration after infection (Table C); format: cell-based
Description: (§1) The tests were carried out inoculating virus of various kinds on living cells from different sources, forming the respective culture in tissue culture flasks, according to the method well known to those skilled in the art. The virus forms a plurality growing seats on the bottom of the tissue culture flasks, depending on the virus concentration and the test conditions, said seats being easily identifiable with the naked eye. In such a way it is possible to establish the controls. At the same time in the tissue culture flasks wherein the compound of the invention had been introduced, at various concentrations, an inhibition is observed, as shown by a number of growing seats lower than that of the controls. Said inhibition was calculated in percent as referred in the following tables. In order to ascertain the activity of compound G-413 "in vitro" at a dose of 10 μg on Herpes simplex virus type 2 for different times of administration, a test was effected introducing the compound into the cells after the virus infection.

ECHO 2 = assay: Inhibition of virion production, ECHO 2 on HEp-2 cells (Table E); format: cell-based; details: ECHO 2 10^-6; 10^-7; 10^-8, HEp-2
Description: (§2) The activity of the compound G-413 was assessed by the test of inhibition of virion production.
(§3) The test was effected with various types of virus, on HEp-2 cells.

[3] = tested on: virus Coxackie B, type 4 (COXB4); assay: Antiviral activity in vitro on Coxackie B type 4 at different doses (Table B); format: cell-based
Description: as §1, with “Tests have been effected by using virus” for “In order to ascertain the activity of compound G-413 "in vitro" at a dose of 10 μg on”, “simplex,” for “simplex virus”, “(HSV2), and” for “for different times of administration, a test was effected introducing the compound into the cells after the”, “Coxackie B, type 4 (COXB4).” for “infection.”

HSV2 [4] = assay: Inhibition of virion production, HSV2 on HEp-2 cells (Table G); format: cell-based, Herpes simplex virus type 2
Adeno 17 = assay: Inhibition of virion production, Adeno 17 on HEp-2 cells (Table H); format: cell-based
Description: as §2, §3

[5] = tested on: Herpes simplex virus type 2; assay: Antiviral activity in vitro on HSV2 at different doses (Table A); format: cell-based
Description: as §1, with “Tests have been effected by using virus” for “In order to ascertain the activity of compound G-413 "in vitro" at a dose of 10 μg on”, “simplex,” for “simplex virus”, “(HSV2), and” for “for different times of administration, a test was effected introducing the compound into the cells after the”, “Coxackie B, type 4 (COXB4).” for “infection.”

HSV2 [6] = assay: Activity on kidney secondary cells of rabbit YRK with respect to HSV2 (Table J)
Coxsackie B4 = assay: Inhibition of virion production, Coxsackie B4 on HEp-2 cells (Table F); format: cell-based
Description: as §2, §3

[7] = Table D, Polio 1 10^-6, HEp-2, 20 μg per "Falcon"
[8] = Table D, Polio 1 10^-7, HEp-2, 20 μg per "Falcon"
[9] = Table D, Polio 1 10^-8, HEp-2, 20 μg per "Falcon"

Question: What does the source list for `Nc1nnc(-c2ccccc2S(N)(=O)=O)s1` [G-413]?
Answer: inhibition of virion production (Polio 1; [7]): 91,9%; virion production (Polio 1; [7]): 29 PFU; inhibition of virion production (Polio 1; [8]): 98,2%; virion production (Polio 1; [8]): 5 PFU; inhibition of virion production (Polio 1; [9]): 97,7%; virion production (Polio 1; [9]): 4 PFU; inhibition (HSV2 [1]; HSV2 10^-1, 10 μg): 38,1%; virion production (HSV2 [1]; HSV2 10^-1, 10 μg): 13 PFU; inhibition (HSV2 [1]; HSV2 10^-1, 50 μg): 71,5%; virion production (HSV2 [1]; HSV2 10^-1, 50 μg): 6 PFU; inhibition (HSV2 [1]; HSV2 10^-2, 10 μg): 23,0%; virion production (HSV2 [1]; HSV2 10^-2, 10 μg): 7 PFU; inhibition (HSV2 [1]; HSV2 10^-2, 50 μg): 77,0%; virion production (HSV2 [1]; HSV2 10^-2, 50 μg): 3 PFU; inhibition (HSV2 [1]; HSV2 10^-3, 10 μg): 50,0%; virion production (HSV2 [1]; HSV2 10^-3, 10 μg): 2 PFU; inhibition (HSV2 [1]; HSV2 10^-3, 50 μg): 75,0%; virion production (HSV2 [1]; HSV2 10^-3, 50 μg): 1 PFU; inhibition ([2]; HSV2 10^-2 + 10 μg, no delay): 62,5%; virus growth (HSV2 with G-413) ([2]; HSV2 10^-2 + 10 μg, no delay): 7,5 PFU/ml; inhibition ([2]; HSV2 10^-2, 1 h later + 10 μg): 45,0%; virus growth (HSV2 with G-413) ([2]; HSV2 10^-2, 1 h later + 10 μg): 11,0 PFU/ml; inhibition ([2]; HSV2 10^-2, 2 h later + 10 μg): 60,0%; virus growth (HSV2 with G-413) ([2]; HSV2 10^-2, 2 h later + 10 μg): 8,0 PFU/ml; inhibition ([2]; HSV2 10^-2, 4 h later + 10 μg): 77,0%; virus growth (HSV2 with G-413) ([2]; HSV2 10^-2, 4 h later + 10 μg): 4,5 PFU/ml; inhibition ([2]; HSV2 10^-2, 8 h later + 10 μg): 85,0%; virus growth (HSV2 with G-413) ([2]; HSV2 10^-2, 8 h later + 10 μg): 3,0 PFU/ml; inhibition ([2]; HSV2 10^-2, 20 h later + 10 μg): 42,5%; virus growth (HSV2 with G-413) ([2]; HSV2 10^-2, 20 h later + 10 μg): 11,5 PFU/ml; inhibition of virion production (ECHO 2): 100%; inhibition ([3]; COXB4 10^-6, 2,5 μg): 28,8%; virus growth (COXB4 with G-413) ([3]; COXB4 10^-6, 2,5 μg): 23,5 PFU/ml; inhibition ([3]; COXB4 10^-6, 5,0 μg): 89,9%; virus growth (COXB4 with G-413) ([3]; COXB4 10^-6, 5,0 μg): 3,0 PFU/ml; inhibition ([3]; COXB4 10^-6, 10,0 μg): 81,9%; virus growth (COXB4 with G-413) ([3]; COXB4 10^-6, 10,0 μg): 6,5 PFU/ml; inhibition ([3]; COXB4 10^-6, 20,0 μg): 80,4%; virus growth (COXB4 with G-413) ([3]; COXB4 10^-6, 20,0 μg): 6,5 PFU/ml; percent inhibition (in words) ([3]; COXB4, dose of 5 μg): very high percent inhibition; inhibition of virion production (HSV2 [4]; HSV2 10^-1, HEp-2): 75,2%; virion production (HSV2 [4]; HSV2 10^-1, HEp-2): 8 PFU; inhibition of virion production (HSV2 [4]; HSV2 10^-2, HEp-2): 75,0%; virion production (HSV2 [4]; HSV2 10^-2, HEp-2): 5 PFU; inhibition of virion production (HSV2 [4]; HSV2 10^-3, HEp-2): 62,5%; virion production (HSV2 [4]; HSV2 10^-3, HEp-2): 3 PFU; inhibition of virion production (Adeno 17; Adeno 17 10^-4, HEp-2): 65,0%; virion production (Adeno 17; Adeno 17 10^-4, HEp-2): 35 PFU; inhibition of virion production (Adeno 17; Adeno 17 10^-5, HEp-2): 67,5%; virion production (Adeno 17; Adeno 17 10^-5, HEp-2): 27 PFU; inhibition of virion production (Adeno 17; Adeno 17 10^-6, HEp-2): 63,4%; virion production (Adeno 17; Adeno 17 10^-6, HEp-2): 22 PFU; inhibition ([5]; HSV2 10^-3, 2,5 μg): 66,7%; virus growth (HSV2 with G-413) ([5]; HSV2 10^-3, 2,5 μg): 3,5 PFU/ml; inhibition ([5]; HSV2 10^-3, 5,0 μg): 66,7%; virus growth (HSV2 with G-413) ([5]; HSV2 10^-3, 5,0 μg): 3,5 PFU/ml; inhibition ([5]; HSV2 10^-3, 10,0 μg): 81,0%; virus growth (HSV2 with G-413) ([5]; HSV2 10^-3, 10,0 μg): 2,0 PFU/ml; inhibition ([5]; HSV2 10^-3, 20,0 μg): 71,5%; virus growth (HSV2 with G-413) ([5]; HSV2 10^-3, 20,0 μg): 3,0 PFU/ml; inhibition ([5]; HSV2 10^-3, 30,0 μg): 52,4%; virus growth (HSV2 with G-413) ([5]; HSV2 10^-3, 30,0 μg): 5,0 PFU/ml; inhibition ([5]; HSV2 10^-3, 40,0 μg): 52,4%; virus growth (HSV2 with G-413) ([5]; HSV2 10^-3, 40,0 μg): 5,0 PFU/ml; percent inhibition (in words) ([5]; HSV2, dose of 10 μg): very high percent inhibition; inhibition (HSV2 [6]; HSV2 10^-2, 5 μg): 10%; virion production (HSV2 [6]; HSV2 10^-2, 5 μg): 9 PFU; inhibition (HSV2 [6]; HSV2 10^-2, 10 μg): 30%; virion production (HSV2 [6]; HSV2 10^-2, 10 μg): 7 PFU; inhibition (HSV2 [6]; HSV2 10^-2, 25 μg): 40%; virion production (HSV2 [6]; HSV2 10^-2, 25 μg): 6 PFU; inhibition (HSV2 [6]; HSV2 10^-2, 50 μg): 70%; virion production (HSV2 [6]; HSV2 10^-2, 50 μg): 3 PFU; inhibition (HSV2 [6]; HSV2 10^-2, 100 μg): 70%; virion production (HSV2 [6]; HSV2 10^-2, 100 μg): 3 PFU; inhibition of virion production (Coxsackie B4; COX B4 10^-4, HEp-2): 72,0%; virion production (Coxsackie B4; COX B4 10^-4, HEp-2): 14 PFU; inhibition of virion production (Coxsackie B4; COX B4 10^-5, HEp-2): 83,7%; virion production (Coxsackie B4; COX B4 10^-5, HEp-2): 7 PFU; inhibition of virion production (Coxsackie B4; COX B4 10^-6, HEp-2): 85,0%; virion production (Coxsackie B4; COX B4 10^-6, HEp-2): 6 PFU

Question: How did the “inhibition of virion production” value (Polio 1; Table K, Polio 1 10^-6, HEp-2) turn out when `CNc1nnc(-c2ccccc2S(N)(=O)=O)s1` [G-444] was run?
Answer: Its value is 64,8%.

Question: What about the virion production (Polio 1; Table K, Polio 1 10^-6, HEp-2) of the same molecule?
Answer: Its virion production is 113 PFU.

Question: What about the “inhibition of virion production” value (Polio 1; Table K, Polio 1 10^-7, HEp-2) of the same molecule?
Answer: Its value is 65,7%.

Question: And the virion production (Polio 1; Table K, Polio 1 10^-7, HEp-2)?
Answer: Its virion production is 87 PFU.

Question: And the “inhibition of virion production” value (Polio 1; Table K, Polio 1 10^-8, HEp-2)?
Answer: Its value is 26,6%.

Question: What about the virion production (Polio 1; Table K, Polio 1 10^-8, HEp-2) of the same molecule?
Answer: Its virion production is 83 PFU.

Question: With `C=CCNc1nnc(-c2ccccc2S(N)(=O)=O)s1` [G-445] as the molecule, how does the “inhibition of virion production” value (Polio 1; Table K, Polio 1 10^-6, HEp-2) read?
Answer: The value was 73,6%.

Question: What about the virion production (Polio 1; Table K, Polio 1 10^-6, HEp-2) of the same molecule?
Answer: Its virion production is 85 PFU.

Question: And the “inhibition of virion production” value (Polio 1; Table K, Polio 1 10^-7, HEp-2)?
Answer: Its value is 73,2%.

Question: And the virion production (Polio 1; Table K, Polio 1 10^-7, HEp-2)?
Answer: Its virion production is 68 PFU.

Question: And the “inhibition of virion production” value (Polio 1; Table K, Polio 1 10^-8, HEp-2)?
Answer: The value was 44,3%.

Question: What about the virion production (Polio 1; Table K, Polio 1 10^-8, HEp-2) of the same molecule?
Answer: The virion production was 63 PFU.
